{"source": "patent US20230070731A1", "about": "“COMPOSITIONS FOR SMALL MOLECULE CONTROL OF PRECISE BASE EDITING OF TARGET NUCLEIC ACIDS AND METHODS OF USE THEREOF” (THE TRUSTEES OF THE UNIVERSITY OF PENNSYLVANIA, priority 2020, published 2023)", "key": {"BL21(DE3) E. coli": {"test_system": "BL21(DE3) E. coli", "assay": "Bacterial DNA deaminase rifampicin mutagenesis assay (acquired rifampin resistance)", "assay_type": "cell-based", "conditions": "expression in E. coli", "method": "In initial studies, a foreign protein/domain was inserted into an enhanced hyperactive version of AID described in U.S. patent application Ser. No. 16/025,261 (See for example, SEQ ID NO: 20 of the '261 patent application) which is incorporated herein by reference as though set forth in full. This mutant version of the human DNA deaminase AID, involved in antibody maturation was assessed and the loop regions which appeared to be tolerant to insertion of control elements (e.g., Green Fluorescent Protein GFP fragments) were identified as described hereinbelow. Several candidate locations for insertion were identified. We used an E. coli-based rifampin mutagenesis assay to evaluate activity (See Kohli et al., J Biol Chem. (2009) 284:pages 22898-904). In this assay we measure the activity level of a mutator by measuring how many E. coli can be turned resistant to the antibiotic rifampin when the enzyme is turned on.\nThe mutation frequency of various DNA deaminases, including insertion constructs, were determined using a modified version of previously reported rifampin mutagenesis assay (Kohli, JBC 2009). […] The mutation frequencies were then calculated by the ratio of rifampicin resistant colonies to total population. […]"}, "[1]": {"test_system": "fluorescein (FAM)-labeled oligonucleotide substrate containing a single cytosine", "assay": "In vitro DNA deaminase oligonucleotide assay", "assay_type": "biochemical", "conditions": "result in words", "method": "For in vitro assays, purified intact, optGFP-inserted, or split DNA deaminases were expressed in BL21(DE3) cells that co-express the Trigger Factor (TF) chaperone, as previously described^33. Briefly, 600 mL cultures were grown to an OD600 of 0.6 at 37° C. Cultures were shifted to 16° C. for 16 hours after induction with 1 mM IPTG. For AID variants, the pelleted cells were resuspended in 50 mM Tris-Cl (pH 7.5) 150 mM NaCl, 10% glycerol (wash buffer) and lysed through sonication. The soluble fraction was filtered after high-speed centrifugation and incubated with 3 mL of Amylose Resin (NEB) for 1 hr at 4° C. The resin was washed extensively prior to elution with wash buffer plus 10 mM maltose. Total protein was quantified by comparison to a BSA standard curve. For A3A variants, the pelleted cells were resuspended in 50 mM Tris-Cl (pH 7.5) 150 mM NaCl, 10% glycerol, 25 mM imidazole (wash buffer) and lysed through sonication. The soluble fraction was filtered after high-speed centrifugation and incubated with 3 mL of HisPur cobalt resin (Thermo) for 1 hr at 4° C. […]\nFor the in vitro assay, a fluorescein (FAM)-labeled oligonucleotide substrate was used containing a single cytosine, along with a product control oligonucleotide containing uracil at the same location. […] Product formation was quantified using ImageJ by taking the ratio of substrate to product under each condition. […]"}}}
{"substance": "AID(WT): unmutated AID (activation induced deaminase)", "values": [{"measurement": "Rif^R increase relative to catalytically inactive mutant AID(E58A)", "setting": "BL21(DE3) E. coli", "result": 12, "unit": "fold"}]}
{"substance": "A3A: human A3 enzyme APOBEC3A DNA deaminase", "values": [{"measurement": "in vitro deaminase activity", "setting": "[1]", "result": "tolerated optGFP insertion"}]}
